Data as given in BigSolDB 2.1.

O=C(O)CC(O)C(=O)O (configuration not stated)
solubility (mole fraction)
Settings	303.2 K	308.2 K	313.2 K	318.2 K	323.2 K	328.2 K	333.2 K
in 1,4-dioxane	0.14	0.153	0.16	0.168	0.177	0.192	0.21
in THF	0.145	0.156	0.191	0.199	0.219	0.235	0.253
in acetonitrile	0.007	0.009	0.011	0.012	0.015	0.017	0.021
in ethanol	0.082	0.091	0.101	0.115	0.121	0.129	0.134
in isopropanol	0.036	0.045	0.055	0.071	0.094	0.118	0.134
in water	0.066	0.084	0.106	0.132	0.154	0.17	0.184
